According to patent US5336621A, “Divalent hapten derivatives” (Hoechst Celanese Corporation, priority 1988, dated 1994):

Experiment: Solubility comparison for bis-(theophylline-8-butyryl)-diamides
Type: physicochemical
Procedure: The bis-(theophylline-8-butyryl)-diamides of 1,6-hexanediamine and 4,9-dioxa-1,12-dodecanediamine (examples 2 and 3) were each dissolved in dimethylsulfoxide. The 4,9-dioxa-1,12-dodecanediamide dissolved readily to give a solution of 10 mg/0.5 ml at room temperature.

For `Cn1c(=O)c2[nH]c(CCCC(=O)NCCCCCCNC(=O)CCCc3nc4c([nH]3)c(=O)n(C)c(=O)n4C)nc2n(C)c1=O` [Example 2, bis-(Theophylline-8-butyryl)-1,6-hexanediamine], the “behaviour on dilution of DMSO solution into aqueous phosphate buffer” value (10 mg/2 ml DMSO solution diluted into a two-fold volume of pH 7.5 phosphate buffer) was “immediate heavy precipitation of divalent hapten was noted” and the “solution obtained in dimethylsulfoxide” value (required heating to obtain a solution in dimethylsulfoxide) was 10 mg/2 ml.
With `Cn1c(=O)c2[nH]c(CCCC(=O)NCCCOCCCCOCCCNC(=O)CCCc3nc4c([nH]3)c(=O)n(C)c(=O)n4C)nc2n(C)c1=O` [Example 3, bis-(Theophylline-8-butyryl)-4,9-dioxa-1,12-dodecane-diamide] the “behaviour on dilution of DMSO solution into aqueous phosphate buffer” value (10 mg/0.5 ml DMSO solution diluted into 2 ml of 50 mM aqueous sodium phosphate buffer (pH 7.5)) was “clear, stable solution” and the “solution obtained in dimethylsulfoxide” value (dissolved readily in dimethylsulfoxide, room temperature) was 10 mg/0.5 ml.
